Measured values reported in patent US8530513B1, “Pharmaceutical uses of diterpene excavatolide B from a coral or an analogue thereof” (National Sun Yat-Sen University, priority 2012, dated 2013).

Tests used:
MMP-9 mRNA = test: TPA-induced MMP-9 mRNA expression in mouse skin, RT-PCR; format: in vivo; conditions: for TPA-induced MMP-9 mRNA expression (in words): topical after TPA, 6 h, indicated concentrations
Protocol: Shaven abdominal skins of female C57BL/6JNarl mice were untreated or topically treated with vehicle (acetone, […]) or TPA (10 nmol in […]) for 6 h or treated first with TPA for 10 min and then with the indicated concentrations of BrD1 for 6 h. Total RNA was extracted from treated abdominal skins of female mice using TRIzol reagent (Invitrogen Corp., Carlsbad, Calif.). RT-PCR reactions using AccessQuick RT-PCR system (Promega, Madison, Wis.) were carried out as described previously. The primers contained the following sequences: mouse MMP-9 sense primer 5′-[…]-3′ (SEQ ID NO. 1), and anti-sense primer 5′-[…]-3′ (SEQ ID NO. 2); mouse GAPDH sense primer 5′-[…]-3′ (SEQ ID NO. 3), and anti-sense primer 5′-[…]-3′ (SEQ ID NO. 4). Gel images were scanned and densitometry analysis of the captured image was performed using Gene Tools software (Syngene, Cambridge, UK).
Matrix metalloproteinases (MMPs) play a crucial role in many physiological and pathological processes through remodeling extracellular matrix tissues (Stamenkovic I. J Pathol 2003, 200:448-464). Matrix metalloproteinase-9 (MMP-9), a gelatinase which has a key role in inflammatory response, is activated in skin during tissue injury (Shakarjian M P, Bhatt P, Gordon M K, Chang Y C, Casbohm S L, Rudge T L, Kiser R C, Sabourin C L, Casillas R P, Ohman-Strickland P, Riley D J, Gerecke D R. J Appl Toxicol 2006, 26:239-246). In order to evaluate the anti-inflammatory effect of BrD1 on MMP-9 activation in TPA-inflamed skin, BrD1 was topically applied after TPA treatment for 24 h. […] Inhibiton of TPA-inducedMMP-9 expression by BrD1 treatment could also be readily observed at the mRNA level.

[1] = test system: abdominal skins of female C57BL/6 mice; test: TPA-induced edema, H&E-stained skin sections; format: in vivo, mouse; conditions: topical 1 mg/site for 6 h after TPA
Protocol: Mice were treated or not treated topically on their shaven abdomens with acetone (vehicle only) or TPA (10 nmol in 200 μl acetone/site) for 6 h or treated first with TPA for 10 min, then with the indicated concentrations of BrD1 for 6 h. Mice were killed by cervical dislocation. Abdominal skin tissues were collected, fixed with formalin buffer and embedded in paraffin. Tissue sections ([…]) were cut and laid onto silanized glass slides and deparaffinized three times with xylene for 5 min each prior to rehydration using a graded alcohol bath. For hematoxyline and eosin staining, the sections were stained with hematoxyline and eosin staining. For immunohistochemical staining, the deparaffinized sections were boiled in 10 mM citrate buffer (pH 6.0) for 10 min for antigen retrieval and rinsed with PBS containing 0.05% Tween-20 buffer for 5 min. The sections were treated with 3% hydrogen peroxide in methanol for 15 min to decrease non-specific binding. […] Subsequently, peroxidase-binding sites were determined by staining with 3,3′-diaminobenzidine tetrahydrochloride (Dako). […]
Since increased vascular permeability is one of factors contributing to the formation of edema, we next evaluated whether BrD1 inhibited formation of edema in TPA-induced inflammation by examining H&E-stained longitudinal sections of skin samples.

CCCC(=O)O[C@H]1C/C(C)=C\[C@@H]2OC(=O)[C@]3(C)O[C@]23[C@@H](OC(C)=O)[C@H]2[C@@H](C)[C@@H](O)C[C@H](OC(C)=O)[C@]2(C)[C@H]1OC(C)=O [BrD1, excavatolide B]
inhibition of TPA-induced MMP-9 mRNA expression (MMP-9 mRNA; 1 mg/site/mouse topical, 6 h after TPA): ≤ 82%
TPA-induced MMP-9 mRNA expression (in words) (MMP-9 mRNA): significantly inhibited MMP-9 mRNA expression in a dose-dependent manner
TPA-induced MMP-9 mRNA expression (in words) (MMP-9 mRNA; listed as excavatolide B): significantly inhibits MMP-9 mRNA expression in a dose-dependent manner
skin thickness (TPA-induced edema) [1]: substantially decreased the skin thickness
skin thickness (TPA-induced edema) ([1]; listed as excavatolide B): substantially decreases the skin thickness
